Source: a melting point compilation (Tetko et al.; mined from patent text by program, amines drawn as free bases though some values may be those of a salt)

Compound	melting point [°C]
Cc1sc2c(c1C)C(c1ccc(Cl)cc1)=NC(CC(=O)N1CCCCC1)c1nnc(C)n1-2 (stereo unspecified)	260 to 262
CC(C)c1cc([N+](=O)[O-])ccc1OCC1CO1 (stereo unspecified)	60 to 62
CCCn1c(=O)c2c(nc(C3CCC(=O)C3)n2Cc2ccccc2)n(CCC)c1=O (stereo unspecified)	145
CC(C)(C)c1cc(CCC(=O)NN)cc(C(C)(C)C)c1O	153 to 154
CCCCN(CCCC)S(=O)(=O)c1cc(C(=O)O)ccc1Cl	93 to 96
CC(=O)Nc1ccc(C=O)cc1F	133
CCNC(=O)c1cc(N)c(N)cc1OC	65 to 67
Cc1ccc(OCC(O)CNC(C)(C)C)c(C2=NNC(=O)CC2)c1 (stereo unspecified)	126 to 128
COc1cc(N2CCC(N3CCN(C(=O)OCc4ccccc4)CC3)CC2)ccc1Nc1ncc2ccc(-c3ccccc3OC)n2n1	75 to 76
COCCCc1cccc(C2(c3ccc(OC(F)F)cc3)N=C(N)N(C)C2=O)c1 (stereo unspecified)	48 to 50
C[Si](C)(O[C@@H]1c2cc(Br)ccc2-c2ccc(Br)cc2[C@H]1O[Si](C)(C)c1ccccc1)c1ccccc1 (relative stereo)	103 to 104
COC(=O)c1cc(S)cc(C(=O)OC)c1[N+](=O)[O-]	117 to 119
CC(C)(C)c1cc(CN2CC(N(O)C(N)=O)C2)cc(C(C)(C)C)c1O	90 to 95
CC(C)(C)OC(=O)NC12CCC1CN(Cc1ccccc1)C2 (stereo unspecified)	69 to 70
O=C1CC(c2ccc(O)cc2O)Oc2cc(O)cc(O)c21 (stereo unspecified)	258 to 259
C#CCCCCNC(=O)c1cnc(OCC(O)CNC(C)(C)C)s1 (stereo unspecified)	140 to 148
CN(C)CCc1cc2occc2c(=O)[nH]1	97.5 to 98
COC(OC)c1cc(O)cc(Cl)c1	153
CC(C)C(=O)O[C@H]1[C@H](C)OC(=O)[C@@H](NC(=O)OC(C)(C)C)COC(=O)[C@@H]1Cc1ccc(F)cc1	58 to 66
CN1CCN(Cc2ccccc2Cl)C(C2=NCCO2)C1 (stereo unspecified)	96.8

Compound	melting point [°C]
CC(C)(C)OC(=O)c1ncn2c1[C@@H]1CC=CN1C(=O)c1c(Cl)cccc1-2	235 to 237
CN1CC=C(c2c[nH]c3ccc(NS(=O)(=O)c4cccc5ccccc45)cc23)CC1	244 to 245
CCOc1ccc(-c2nc(-c3ccc(SC(=O)N(C)C)c(C(=O)OC)c3)cs2)cc1OCC	108 to 109
O=C(c1ccncc1)[N+]1([O-])CCC(C(O)(c2ccc(Cl)cc2)c2nccs2)CC1 (stereo unspecified)	215 to 217
COc1ccc(/C(=C\C=C\C(=O)Oc2ccc([N+](=O)[O-])cc2)c2cccnc2)cc1	54 to 56
COc1ccccc1N(CCN1CCC(C(=O)c2ccc(F)cc2)CC1)C(=O)c1ccc(CO)cc1	87 to 91
CCCCCCc1cc(C(=O)OCC)c(-c2ccccc2)c(-c2ccccc2)c1C(=O)OCC	119 to 121
O=C1SCC(O)=C1Cc1ccc(Br)cc1	201 to 202
COc1cc(C2=C(c3cn(CCCNC(=O)C(N)CO)c4ccccc34)C(=O)NC2=O)cc(OC)c1OC (stereo unspecified)	112 to 114
O=C(c1ccc(F)cc1)C1CCN(CCCCl)CC1	66.5 to 68.5
CSC(=S)N1CC(C)(C)CSC1=Nc1ccccc1C(C)C	77 to 79
CC(=O)OCc1ccc(-c2ccc(COC(C)=O)cc2)cc1	86 to 87
COC(=O)C1=C(C)NC(C)=C(C(=O)OCCN2CCN(C(c3ccc(OC)cc3)c3ccc(OC)cc3)CC2)C1c1cccc([N+](=O)[O-])c1 (stereo unspecified)	76 to 80
CCOC(=O)c1cn(CCF)c2nc(N3CCC(N(C)C(C)=O)C3)c(F)cc2c1=O (stereo unspecified)	227 to 229
CC(=O)COc1cc(-n2c(=O)cc(C(F)(F)F)n(C)c2=O)c(F)cc1Cl	164 to 166
N=C(CCOCC(COCCC(=N)NO)(COCCC(=N)NO)COCCC(=N)NO)NO (stereo unspecified)	60
CCOc1nn(-c2ccc(C(F)(F)F)cn2)cc1CCCOc1ccc(CCC(=O)O)c(OCc2ccccc2)c1	128 to 130
CCCCCCCCCCCCCCCCOCC(CC(CCCCCCCCCCCCCC)C(=O)NCCO)OCc1ccccc1 (stereo unspecified)	39 to 40
CNC(=S)NS(=O)(=O)c1cc(CCNC(=O)c2cc(Cl)ccc2OC)ccc1-c1ccc(Cl)cc1	189 to 192
COc1cc2nc(=O)n3[nH]cnc3c2cc1OC	320 to 325

Compound	melting point [°C]
O=C(NC1=NN(c2ccc(Cl)cc2)C(c2ccc(Cl)cc2)C1)C(F)(F)F (stereo unspecified)	138 to 140
CCCCCCCCSC(=O)n1cc2cc(C)c(NC(=O)c3cc(OC)nn3-c3ncccc3Cl)c(C(=O)NC(C)C)c2n1	98 to 102
CC(=O)OC1CSC(Oc2ccc3nnn(C)c3c2)C(OC(C)=O)C1OC(C)=O (stereo unspecified)	143
Cc1nc(C23CC4CC(CC(C4)C2)C3)oc1COC(=O)C(C)(C)O	68 to 70
CCCCc1oc2ccccc2c1-c1ccc(-c2ccc(OC(Cc3ccccc3)C(=O)O)cc2)cc1 (stereo unspecified)	169 to 170
CC(C)(N)c1ccc(-c2nc(Nc3ccc(CCn4ccnc4)cc3)ncc2C#N)cc1	184
CCc1[nH]n(C2CCCC2)c2nc(-c3ccnc(C)c3)nc(=O)c1-2	258 to 259
COc1cc(N)ccc1N1CCN(CCCNc2c(C)c(=O)n(C)c(=O)n2C)CC1	146 to 148
COc1ccc(-c2nc(Cl)n(C)c2-c2ccc(OC)cc2)cc1	132 to 133
Nc1nc2c(c(=O)[nH]1)n(CC(=O)O)c(=O)n2C1OC(CO)C(O)C1O (stereo unspecified)	> 230
CC(C)c1cc(OCCO[Si](C(C)C)(C(C)C)C(C)C)cc2c1C(=O)N(CCl)S2(=O)=O	85 to 86
CCOC(=O)c1cnc(NN)nc1C(F)(F)F	89 to 90
NC(=O)N1CCCN(NC(=O)OCc2ccccc2)C1=O	136
COc1ccc(S(N)(=O)=O)cc1C(=O)NCC1CCCN1CC1=CCCCC1 (stereo unspecified)	167
O=C1Nc2ccc(F)cc2C1CCCCN1CCN(c2ccc(F)cc2)CC1 (stereo unspecified)	135 to 137
CN1C(=O)CCN(c2ccc(Cl)cc2Cl)C1=O	154 to 157
CCOC(=O)c1cc(NC(=O)c2ccc(C)cc2)ccc1N	167 to 171
CCCCNc1c(C(=O)OCC)c(C)nc(N)c1[N+](=O)[O-]	98 to 99

Continued, values first:

melting point [°C]	Compound
182 to 184	CN(C)c1ccc(/C=C/c2nc3cc(Cl)ccc3s2)cc1
201 to 202	CC(=O)Oc1cc2ccccc2cc1C(N)=O
153 to 154	Cc1c(Cc2ccccc2)c2c(c(C)c1NC(=O)CC(C)(C)C)C(c1ccc(C(C)C)cc1)CO2 (stereo unspecified)
186 to 187	NS(=O)(=O)c1ccc(-c2c(-c3ccccc3)noc2Cl)cc1
54 to 57	C=Cc1ccc2c(n1)COC(c1ccccc1)O2 (stereo unspecified)
270 to 271	CN(Cc1ccc(NC(=O)C2=Cc3cc(-c4cc5ccccc5s4)ccc3S(=O)(=O)CC2)cc1)C1CCOCC1
98 to 99	O=C1Nc2ccccc2SC1CCCCl (stereo unspecified)
257 to 260	Cc1cc2cc(NC(=O)Nc3ccc(Cl)cc3)ccc2[nH]1
165 to 167	O=[N+]([O-])c1cccnc1Nc1ccncc1
67	CC(=O)CC(C)c1ccc(-c2ccccc2)cc1 (stereo unspecified)
118 to 119	C=CCOc1nc2cccc(C(=O)OC)c2n1Cc1ccc(-c2ccccc2C#N)cc1
211 to 212	O=C1CCC(c2ccccc2O)=NN1
138 to 140	CN(C)Cc1ccccc1C1(c2ccc(Cl)cc2)OC(=O)c2ccccc21 (stereo unspecified)
132	O=c1[nH]c2ccc(Cl)cc2n1CCCN1CCN(C(c2ccccc2)c2ccccc2)CC1
155 to 158	COc1ccccc1N1CCN(Cc2ccccc2CCC(=O)O)CC1
100 to 103	O=C(c1ccc(OCCN2CCCCC2)cc1)c1c(-c2ccc(O)cc2)sc2ccccc12
194 to 195	NC(=O)CNc1ncccc1NC(=O)c1ccccc1
132 to 134	CN(O)C(=O)C(=Cc1ccc2ccccc2c1)c1ccc(F)cc1
187 to 188	COc1ccc(C(=O)Nc2ccccc2)cc1NCc1ccc(OC)c(OC)c1

melting point [°C]	Compound
89 to 91	Cc1sc(-c2ccccc2)nc1CCOc1ccc(N)cn1
91 to 93	Nc1cccnc1Nc1ccccc1C(=O)c1ccccc1
215 to 217	O=C(O)c1ccc(NC(=O)c2ccccc2-c2ccccc2)nc1
157 to 161	CON=C(C(C)=NN=Cc1ccccc1-n1c(OC)nn(C)c1=O)c1cccc(C(F)(F)F)c1
218 to 221	COc1ccc(CCNC(=O)/C=C/c2cccs2)cc1S(N)(=O)=O
106 to 107	CCN(CC)Cc1cc(C(=O)c2ccccc2)cc(C2CCCCC2)c1O
167 to 168	O=C1c2ccc(Br)cc2C(=O)N1c1ccc2c(c1)C=C2
224 to 226	O=C(Nc1ccccc1Oc1ccccc1-c1nnn[nH]1)c1ccc(OCc2ccc3ccccc3n2)cc1
80 to 82	Cc1cccc(-c2n[nH]cc2-c2ccc(F)c(-c3ccc(S(=O)(=O)C(F)F)cc3)c2)n1
102	C(=Cc1ccccc1)COc1ccc(C2OCCO2)cc1
174 to 175	COc1cc2c3ccc(OC)c(OC)c3n(Cc3ccccc3)c2cc1OC
261 to 262	NS(=O)(=O)c1cc(C(=O)O)cc([N+](=O)[O-])c1Nc1ccccc1
52 to 55	Nc1ccc(C(=O)N2Cc3ccccc3Sc3ccccc32)cc1
236 to 238	c1csc(-c2n[nH]c3c2sc2ccccc23)c1
271 to 272	O=C(Nc1ccc2[nH]nnc2c1)N1CCN(c2nc(-c3ccccc3)ns2)CC1
44 to 47.5	CCc1c(CC#N)ccc(OCc2ccccc2)c1OCc1ccccc1
166 to 169	Cc1ccc(-n2nc3c(cc2=O)CCc2sc(CO)cc2-3)cc1
245 to 246	CC(C)(C)Sc1c(CC(C)(C)C(=O)O)n(Cc2ccc(Cl)cc2)c2ccc(-c3ccccc3)cc12
248 to 251	Cc1oc(C(N)=O)c(C)c1-c1nc2ccc(Oc3ccccc3)cc2[nH]1
